Results reported in US20060229239A9, “Novel curcuminoid-factor VIIa constructs as suppressors of tumor growth and angiogenesis” (priority 2002, published 2006).
Marks after values point to notes of the source that are not given here.

How the values were obtained:
HUVECs [1] = test: Neutral Red viability assay, HUVECs; assay type: cell-based, human; conditions: 24 hrs
Procedure: (§1) HUVECs, MS-1 cells and SVR cells were cultured to confluence and agents were incubated for 24 hrs. Cell viability was determined by Neutral Red assays. Among synthetic curcumin analogs, A279L, A279U and EF-15 were not cytotoxic at 20 μM. MS-I cells were murine vascular endothelial cells which were immortalized by transfection of SV40 large T antigen but are non-maligant. However, when MS-1 cells were transfected with a ras mutant gene, cells were transformed to become malignant angiosarcoma cells, (SVR cells).

MS-1 cells = test: Neutral Red viability assay, MS-1 cells; assay type: cell-based, murine; conditions: 24 hrs
Procedure: as §1

SVR cells = test: Neutral Red viability assay, SVR cells; assay type: cell-based, murine; conditions: 24 hrs
Procedure: as §1

DU145 = test: SRB viability test, DU145 human prostate cancer cell line expressing tissue factor; assay type: cell-based; conditions: for O.D. 570 nm, SRB Viability Test: 48 hrs, Mean S.D.
Procedure: DU145 cells were plated with 2×10^4 cells/100 μl/well in a 96 well plate and cultured overnight. The cells were cultured for 48 hrs. Cultures was terminated by adding 40% TCA to a final concentration of 10%. Cells were fixed in TCA at 4° for 1 hr, washed with tap water 5 times and air dried. Sulforhodamine B (SRB) solution (100 μl) at 0.4% (w/v) in 1% acetic acid was added to each well, and the cells were incubated for 10 mins at room temperature. After staining, unbound dye was removed by washing five times with 1% acetic acid and air dried. […] Assays were performed in triplicate or quadruplicate. An asterisk (*) indicates p<0.0001 by the Student t-test (two-tailed probability). The concentration of EF24-FFRck-fVIIa was estimated based on protein concentration.

MDA-MB-231 = test: Neutral Red (NR) viability test, human breast cancer MDA-MB-231; assay type: cell-based; conditions: Mean ± S.E.
Procedure: (§2) The Neutral Red (NR) dye viability assay, instead of the Sulforhodamine B (SRB) assay, was used. In the NR viability assay, NR dye is taken up only by viable cells, while in the SRB viability assay, viable cells are fixed by trichloracetic acid (TCA) on the plate (thus, cells are killed), and the fixed cells are stained by SRB dye.
(§3) At the termination of culture, medium was removed and 200 μl of fresh, warm medium containing 50 μg of NR/ml was added to each well in a 96-well plate. Cells were incubated at 37° for 30 mins, followed by two washes with 200 μl of PBS. The NR taken up by cells was dissolved by adding 200 μl of 0.5N HCI containing 35% ethanol. The amount of the dye in each well was read at 570 nm by an ELISA plate reader.

RPMI-7951 = test: Neutral Red (NR) viability test, human melanoma RPMI-7951; assay type: cell-based; conditions: Mean ± S.E.
Procedure: as §2, §3

normal human melanocytes = test: NR viability test, normal human melanocytes (no tissue factor); assay type: cell-based; conditions: Mean ± S.D.
Procedure: as §2, §3

MCF10 = test: NR viability test, MCF10 normal human breast luminal ductal cell line (no tissue factor); assay type: cell-based; conditions: Normal Breast Cells (MCF10), Mean ± S.D.
Procedure: as §2, §3

HUVECs [2] = test: SRB viability test (NCI method), normal HUVECs not expressing tissue factor; assay type: cell-based, human; conditions: Mean ± S.D.
tumor cells = test: NCI screening system, tumor cells; assay type: cell-based
Procedure: Curcumin, EF24 and cisplatin were tested against tumor cells in the NCI screening system. Curcuminoids were also added to transformed breast cancer cells and the mean growth inhibitory concentrations determined, as shown in FIG. 5.

[3] = test system: cells with or without tissue factor on the cell surface; test: Cell killing in relation to tissue factor expression on the cell surface (summary); assay type: cell-based
Excerpt: One aspect of the present invention provides novel compositions comprising cytotoxic compounds such as synthetic antitumor and anti-angiogenesis curcumin analogs (curcuminoids) linked to a protein delivery vehicle that can deliver the cytotoxic compoun specifically to cancer cells and vascular endothelial cells having surface-bound tissue factor. Novel compositions of the present invention can comprise a curcuminoid covalently linked to a tether which may be, but is not limited to, a dicarboxylic acid such as succinate. The tether is covalently linked to a N-terminal amino acid of a peptidyl linker such as phenylalanine-phenylalanine-arginine, the C-terminal amino acid of which comprises a methylketone. […] Preferably, the curcuminoid-tether-linker will have bonded to an amino acid of the serine protease domain of the fVIIa, thereby blocking the procoagulating activity of the novel therapeutic composition. The present invention also provides methods of synthesis of cytotoxic compound-protein conjugates. The compositions and methods of the present invention may increase the efficacy of the cytotoxic agents and decrease their side effects by delivering the agents to specific target cells. […] The conjugate EF24-FFRck-fVIIa construct of the present invention kills cancer cell lines and vascular endothelial cells, such as HUVECs, that express tissue factor on the cell surface.

Cell cytotoxicity assays = assay type: cell-based
Procedure: Of several compounds examined, the succinic acid derivative aa (86% yield) was suitable since it retained 50% of the activity of EF24 in cell cytotoxicity assays. To synthesize the succinyl derivative aa of EF24, to a solution of EF24 (0.16 g, 0.5 mmol) in anhydrous CH2Cl2 (6 ml) was added succinic anhydride (0.057 g, 0.5 mmol) and Et3N (101 mg, 1 mmol). The mixture was stirred at room temperature for 3 hrs, diluted with CH2Cl2, washed twice with saturated NaHCO3 (2×10 ml) and brine, dried over anhydrous Na2SO4, and relieved of solvent by evaporation. The resulting solid was purified by flash chromatography using benzene/acetone/acetic acid (27:10:0.5) as the eluant to obtain the yellow solid aa ([…], mp 145° C., 86% yield). [drawing 15]

SMILES | O.D. 570 nm, SRB Viability Test (DU145; DU145, 0.8 pM) | O.D. 570 nm, SRB Viability Test (DU145; DU145, 8 pM) | O.D. 570 nm, NR Viability Test (MDA-MB-231; MDA231, 1 pM) | O.D. 570 nm, NR Viability Test (MDA-MB-231; MDA231, 2 pM) | O.D. 570 nm, NR Viability Test (RPMI-7951; RPM17951, 1 pM) | O.D. 570 nm, NR Viability Test (RPMI-7951; RPM17951, 2 pM) | O.D 570 nm, NR Viability Test (normal human melanocytes; 0.8 pM) | O.D 570 nm, NR Viability Test (normal human melanocytes; 4 pM) | O.D 570 nm, NR Viability Test (MCF10; 0.8 pM) | O.D 570 nm, NR Viability Test (MCF10; 4 pM) | O.D. 490 nm, SRB Viability Test (HUVECs [2]; 0.8 pM) | O.D. 490 nm, SRB Viability Test (HUVECs [2]; 8 pM) | killing of cancer cells and normal cells regardless of tissue factor expression [3] | other results
COc1cc(/C=C/C(=O)CC(=O)/C=C/c2ccc(O)c(OC)c2)ccc1O [Curcumin, diferuloylmethane] |  |  |  |  |  |  |  |  |  |  |  |  |  | Neutral Red Viability Assay (% of Control) (HUVECs [1]; 1 μM): 103 % of Control; Neutral Red Viability Assay (% of Control) (HUVECs [1]; 20 μM): 21 % of Control; Neutral Red Viability Assay (% of Control) (MS-1 cells; 1 μM): 90 % of Control; Neutral Red Viability Assay (% of Control) (MS-1 cells; 20 μM): 3 % of Control; Neutral Red Viability Assay (% of Control) (SVR cells; 1 μM): 88 % of Control; Neutral Red Viability Assay (% of Control) (SVR cells; 20 μM): 4 % of Control
O=C1/C(=C/c2ccccc2F)CNC/C1=C\c1ccccc1F [EF24, 3,5-Bis-(2-fluorobenzylidene)-piperidin-4-one] | 0.391 ± 0.041 | 0.053 ± 0.025* | 0.172 ± 0.020 | 0.109 ± 0.014 | 0.220 ± 0.023 | 0.119 ± 0.018 | 0.255 ± 0.009 | 0.119 ± 0.009 | 0.104 ± 0.018 | 0.091 ± 0.007 | 0.136 ± 0.010 | 0.038 ± 0.010 | indiscriminatingly kills | potency relative to cisplatin (tumor cells): about 10 times; effectiveness against tumor cells compared with cisplatin or curcumin (tumor cells; NCI screening system, FIG. 4): significantly more effective
N=C(N)NCCC[C@H](NC(=O)[C@H](Cc1ccccc1)NC(=O)[C@@H](Cc1ccccc1)NC(=O)CCC(=O)N1C/C(=C\c2ccccc2F)C(=O)/C(=C/c2ccccc2F)C1)C(=O)CCl [EF24-FFRck] | 0.389 ± 0.021 | 0.383 ± 0.027 | 0.191 ± 0.013 | 0.171 ± 0.009 | 0.253 ± 0.018 | 0.247 ± 0.020 | 0.252 ± 0.007 | 0.249 ± 0.015 | 0.101 ± 0.013 | 0.113 ± 0.003 | 0.152 ± 0.026 | 0.160 ± 0.038 | does not kill | cell killing (DU145; EF24-FFRck alone, Table 2): does not kill any cells
O=C(O)CCC(=O)N1C/C(=C\c2ccccc2F)C(=O)/C(=C/c2ccccc2F)C1 [aa] |  |  |  |  |  |  |  |  |  |  |  |  |  | activity retained relative to EF24 in cell cytotoxicity assays (Cell cytotoxicity assays): 50%
